Entries after “also recorded” stand apart in the source; their conditions may differ.
Key:
[1] = tested on: pancreatic acinar cells; test: LDH release from pancreatic acinar cells; format: cell-based, rat; settings: 100 μM curcumin, control acinar cells or cells stimulated with 100 nM CCK-8
[2] = tested on: IκBα and IκBβ; test: Western blot of IκBα and IκBβ in cytosolic extracts from pancreatic tissue; format: in vivo, rat
Description: IκBα and IκBβ levels were measured in cytosolic protein extracts from pancreatic tissue, prepared according to Example 12, by Western blot analysis using polyclonal antibodies sc-371 and sc-945, respectively (Santa Cruz Biotechnology, Santa Cruz, Calif.) using methods known in the art. […] Specifically, IκBα and IκBβ levels were measured in cytosolic protein extracts from pancreatic tissue by Western blot analysis using polyclonal antibodies sc-371 and sc-945, respectively (Santa Cruz Biotechnology, Santa Cruz, Calif.). […] Specifically, proteins in the cytosolic extract were separated by SDS-PAGE at 120 V using precast Tris-glycine gels and Mini-Cell gel apparatus (Novex, San Diego, Calif.). Separated proteins were electrophoretically transferred to polyvinylidene difluoride membrane for 2 hours at 30 V, using a Novex blot module. Nonspecific binding was blocked by overnight incubation of the membrane in 5% (wt/vol) nonfat dry milk in Tris-buffered saline (TBS, pH 7.5). Blots were then incubated for 2 hours at room temperature with primary antibodies in antibody buffer containing 1% (wt/vol) nonfat dry milk in TTBS (0.05% vol/vol Tween 20 in TBS), washed three times with TTBS, and finally incubated for 1 hour with a peroxidase-labeled secondary antibody in the antibody buffer. Blots were developed for visualization using enhanced chemiluminescence detection kit (Pierce Chemical, Rockford, Ill.).

[3] = tested on: isolated acinar cells; test: Amylase secretion in isolated acinar cells; format: cell-based, rat; settings: 100 μM curcumin, versus absence
Description: The effect of curcumin on amylase secretion in isolated acinar cells was assayed. Specifically, acinar cells were isolated using a collagenase digestion technique known in the art. Animals were sacrificed with CO2. The pancreas was removed and trimmed from mesentary and fat. […]
Amylase secretion was measured. […] Amylase activity was measured in each supernatant sample as well as the cellular sample and values for amylase release were calculated as the percentage of amylase activity in the cells at the beginning of the experiment that was release into the media during the experiment.
The absorbance was read with a spectrophotometer at 405 nm at 37° C. and the amylase activity in the samples was calculated by subtracting initial from the final readings. […]

[4] = tested on: AP-1; test: CCK-induced AP-1 activation in isolated pancreatic acinar cells (EMSA); format: cell-based, rat
Description: To confirm that the effects of curcumin occur in the pancreatic acinar cell, the effects of curcumin on the activation of NF-κB and AP-1 in vitro in CCK-stimulated pancreatic acini. Pancreatic acini were prepared from rat pancreas using the collagenase digestion method as described by Pandol S J, et al. (1982) J. Biol. Chem. 257:12024–12029, which is herein incorporated by reference, and then incubated at 37° C. in 199 medium (GIBCO, Rockville, Md.) known in the art. […] EMSAs for NF-κB and AP-1 were performed on nuclear proteins extracted from each sample as provided above. Nuclear protein extracts were prepared by methods known in the art. […] Briefly, samples of pancreatic tissue or isolated acini were rinsed in ice-cold PBS and homogenized in hypotonic Buffer A (20 mM β-glycerophosphate, 10 mM HEPES, pH 7.6, 1.5 mM MgCl2, 10 mM KCl, 10 mM Na2MoO4, 0.1 mM Na3VO4, 1 mM dithiothreitol (DTT), 1 mM phenylmethylsulfonyl fluoride (PMSF), 5 μg/ml each of protease inhibitors pepstatin, leupeptin, chymostatin, antipain and aprotinin). After incubating on ice for about 20 to about 25 minutes, the nonionic detergent Igepal CA-630 (Sigma, St. Louis, Mo.) was added to a final concentration of 0.3 to 0.4% (v/v), followed by an additional incubation on ice for about 1 to about 2 minutes. The crude nuclear pellet was collected by microcentrifugation for 30 seconds. The supernatant (cytosolic protein) was removed, and the nuclear pellet was resuspended in the high-salt buffer C (25% glycerol, 20 mM β-glycerophosphate, 10 mM HEPES, 1.5 mM MgCl2, 420 mM NaCl, 0.2 mM EDTA, 10 mM Na2MoO4, 0.1 mM Na3VO4, 1 mM DTT, 1 mM PMSF, 5 μg/ml each of protease inhibitors pepstatin, leupeptin, chymostatin, antipain and aprotinin. After rotating at 4° C. for up to 1 hour, nuclear membranes were pelleted by microcentrifugation for 10 minutes, and the clear supernatant (nuclear extract) was aliquoted and stored at −80° C. Protein concentration in the nuclear extract was determined by the Bio-Rad protein assay (Bio-Rad Laboratories, Hercules, Calif.).

[5] = molecular target: T1, CCK receptor (Rattus norvegicus, UniProt P30551); test: In vivo pancreatic secretion assay
T1 construct: from tissue; host or cells: living rat, pancreas (acinar cells)
T1 sequence (P30551 1-444): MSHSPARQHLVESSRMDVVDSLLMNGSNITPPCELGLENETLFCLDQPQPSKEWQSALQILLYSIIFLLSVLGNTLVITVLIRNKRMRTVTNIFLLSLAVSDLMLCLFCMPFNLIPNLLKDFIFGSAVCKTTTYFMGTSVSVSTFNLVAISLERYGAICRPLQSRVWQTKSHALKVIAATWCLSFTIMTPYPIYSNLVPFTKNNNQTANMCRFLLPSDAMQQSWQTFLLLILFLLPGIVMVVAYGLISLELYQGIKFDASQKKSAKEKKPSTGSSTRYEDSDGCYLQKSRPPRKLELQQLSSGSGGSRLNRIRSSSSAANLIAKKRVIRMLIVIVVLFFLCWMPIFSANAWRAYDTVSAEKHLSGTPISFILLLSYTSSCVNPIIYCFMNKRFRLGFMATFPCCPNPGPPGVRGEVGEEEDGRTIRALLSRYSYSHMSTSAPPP
Description: To rule out the possibility that the effect of curcumin was through inhibition of the action of cerulein or CCK-8 on CCK receptor activation, the effect of pancreatic secretion was tested.
Pancreatic secretion in test rats was measured in vivo by methods known in the art. See Gukovskaya A S, et al. (2002). Briefly, biliopancreatic secretion was allowed to drain freely for 30 minutes before initiation of the experiment. Then secretion was collected in tubes in 10-minute fractions to determine the basal amylase output, after which 0.25 μg/kg cerulein was given as an i.v. bolus and collection continued for 40 minutes in a similar manner. Collection volumes were measured by weigh, and the amylase output was calculated by determining amylase concentration in the collected fractions. The mean amylase output obtained from two consecutive 10-minute fractions after the stabilization period was taken as the basal secretion and considered as 100%. The results were expressed as percentage increase over basal amylase output 40 minutes after cerulein or vehicle infusion.

LDH release [1]: did not cause additional LDH release
cerulein-induced amylase secretion, of the basal amylase output ([5]; rats treated with curcumin, 0.25 μg/kg cerulein i.v. bolus, 40 min, n=4): 1000±37%
SMILES: COc1cc(/C=C/C(=O)CC(=O)/C=C/c2ccc(O)c(OC)c2)ccc1O [curcumin]
decrease (degradation) of IκBα and IκBβ ([2]; cerulein pancreatitis, rat): prevented
IκBα and IκBβ levels in control animals ([2]; control animals): did not change
IκB degradation ([2]; ethanol/CCK pancreatitis, rat): prevented; also recorded: inhibits
amylase release elicited by maximal (1 nM) and supramaximal (100 nM) CCK-8 [3]: the same
CCK-induced activation of AP-1 in isolated acinar cells ([4]; 1 h with compound, then 0.1 μM CCK 30 min): inhibits; also recorded: abolished; also recorded: blocked; also recorded: attenuates
basal AP-1 binding activity in acinar cells ([4]; isolated acinar cells without CCK): inhibited
effect on cerulein/CCK-induced pancreatic secretion in vivo ([5]; rat, versus without curcumin): not statistically different; also recorded: did not appear to have an effect
